Results: patent US20130203861A1, “METHODS AND COMPOSITIONS FOR TREATING OVARIAN CANCER” (GOLDEN BIOTECHNOLOGY CORPORATION, priority 2009, published 2013)
Values after ≈ are worked out from the molar mass of the structure shown.

System: ovarian cancer cell line ES-2
Experiment: MTT assay for anti-ovarian cancer (cell survival)
Format: cell-based
Details: Homo sapiens, ES-2 cells, 48 hours treatment, absorbance at 570 nm, read-out: IC50 (half inhibition concentration), inhibition of ovarian cancer cells
Method: Exemplary Compound 1 was added into the culture media of ovarian cancer cell line ES-2 (a human ovarian cancer cell line) to determine the survival rates. Survival of cells was analyzed using MTT assay. Other suitable human ovarian cancer cell lines may be used by a skilled person in the art.
MTT assay is commonly used to analyze cell proliferation, survival rate of viable cells and cytotoxicity. MTT (3[4,5-dimethylthiazol-2-yl]-2,5-diphenyltetrazolium bromide) is a yellow dye which can be converted to water-insoluble purple formazan on the reductive cleavage of its tetrazolium ring by the succinate tetrazolium reductase in mitochondria of cells. The amount of formazan produced is used to detect the number of viable cells and calculate the survival rates.
The ES-2 cells were cultivated in McCoy' 5 A medium supplemented with 10% fetal bovine serum, 10 U/ml of Penicillin and 100 μg/ml of Streptomycin at 37° C., 5% CO2 for 24 hours. Proliferated cells were washed once with PBS, treated with 1× trypsin-EDTA, and centrifuged at 1200 rpm for 5 min. The supernatant was removed and the cell pellet was resuspended in 10 ml of fresh medium by gently shaking. Cells were seeded onto 96-well plates. […] The absorbances were measured at 570 nm with an ELISA Reader to determine the survival rates.

COC1=C(OC)C(O)C(C/C=C(\C)CC/C=C(\C)CCC=C(C)C)C(C)C1=O (stereo not shown) [Compound 1, 4-hydroxy-2,3-dimethoxy-6-methyl-5-(3,7,11-trimethyldodeca-2,6,10-trienyl)cyclohex-2-enone]
IC50: 0.8 µg/mL (≈ 2.05 µM)
